{"source": "patent US20240148709A1", "about": "“METHODS OF TREATING EYE PAIN AND EYE DISORDERS” (Aisa Pharma, Inc., priority 2022, published 2024)", "key": {"participants with SSc-RP [1]": {"system": "participants with SSc-RP", "assay": "Raynaud's attack diary endpoints (frequency, duration, severity, pain, RCS), Phase 2a study Part A", "format": "in vivo, human", "description": "Part A—double-blind, placebo-controlled, parallel-group, dose selection, will assess the safety and efficacy of two doses of cilnidipine (10 mg and 20 mg), alone and in combination with tadalafil. A total of 36 participants will be randomized to one of six prespecified treatment arms. Refer to FIG. 1 for treatment arms in Part A of the study. Dosing last for 12 (±2) days in which participants will self-administer daily doses of assigned treatment in the morning. Each participant will take one capsule and one tablet to blind the active therapy being received.\nDuring screening, the Diary will collect the following data to confirm eligibility and serve as the baseline measure for efficacy endpoints should the participant be randomized: • Number of daily Raynaud's attacks • Duration of each attack • Symptoms of each attack, including numbness, pain, tingling, color changes • Severity of each attack (all symptoms of the attack to be considered including tingling, numbness, pain, color changes) • Location of participant during each attack (inside/outside) • Pain score of each attack-using 11-point Likert scale, a validated pain scale which can be used to record intensity of pain. • Daily RCS— a validated outcome measure used to assess the level of difficulty experienced due to RP each day.\nThe relevant metrics measured by this tool daily are: • Study medication • SSc-RP symptoms (Reporting an attack including duration of attack) • Severity of the attack considering all symptoms of the attack e.g. tingling, numbness, pain, color changes (VAS 0-10 cm scale) • Participant's location at the time of the attack (inside home/outside home) • Selecting symptoms experienced during the attack (tingling, numbness, pain, color changes, other) • Pain rating during the attack (11-point Likert scale) • The RCS based on how much difficulty participants had with Raynaud's today, how many attacks the participant had, and how long they lasted. Participants will also be asked to consider how much pain, numbness, or other symptoms the Raynaud's caused in fingers (including painful sores), and how much the Raynaud's alone affected the use of hands today (VAS 0-10 cm scale).\nPercent change from baseline evaluation for frequency of weekly RP attacks will be the primary efficacy endpoint. Data collected in the last 7 days of each dosing period will be used for this analysis. Screening assessments will be used as baseline for the analysis of all periods. No multiple comparison adjustment will be used to control alpha for the multiple comparisons. Mixed effects model will be used for analysis of the primary endpoint according to the crossover design. Other efficacy endpoints of continuous variables will be analyzed using similar methodology. For nominal data, chi-square tests will be applied. Generalized Estimating Equations method will be used, as appropriate, for adjusting for potential confounding factors. In addition, the final analysis will assess whether in this study of severe Raynaud's disease participants, the minimally important difference, previously concluded of 14-15 points on the 100 point RCS scale has been achieved in the cilnidipine dose group. It also will record the percentage of participants achieving a PASS (34 point difference from baseline on a 0-100 VAS) in each treatment group."}, "participants with SSc-RP [2]": {"system": "participants with SSc-RP", "assay": "Safety: adverse events and withdrawals, Phase 2a study Part A", "format": "in vivo", "details": "for overall adverse event rate: all patients who received any dose of cilnidipine (n=17)", "from_the_text": "• Incidence of treatment emergent adverse events (AEs) and serious adverse events (SAEs), including clinically significant vital signs. For Part A safety will be assessed from the time of randomization until 7 days following the last protocol dose. For Part B, participants will be followed for 28 days from the last study dose. • Serious adverse events will be monitored by a DSMB (Part A) and Drug Safety Officer (Part B) on an ongoing basis throughout the study. • Adverse events will be coded using the MedDRA and summarized by SOC, PT, and treatment group.\nSeverity of AEs will be graded by the Investigator as one of: • Mild (Grade 1): A type of AE that is usually transient and may require only minimal treatment or therapeutic intervention.\nAdverse events will be coded using the most current version of the MedDRA® Version 22.0 or higher. The analysis of AEs will be based on the concept of treatment emergent AEs. Treatment emergent AEs will be tabulated by treatment group and will include the number of participants for whom the event occurred, the severity, and relationship to study drug. Treatment emergent AEs (TEAEs) leading to discontinuation and SAEs with onset after the start of study drug will also be summarized. All AEs and SAEs (including those with onset or worsening before the start of study drug) through the end of the study will be listed."}, "[3]": {"details": "10 mg cilnidipine, healthy volunteers, single oral dose, cited from earlier work"}, "Nav 1.7 sodium channel": {"target": "Nav 1.7 sodium channel (Homo sapiens, UniProt Q15858)", "sequence (Q15858 whole entry)": "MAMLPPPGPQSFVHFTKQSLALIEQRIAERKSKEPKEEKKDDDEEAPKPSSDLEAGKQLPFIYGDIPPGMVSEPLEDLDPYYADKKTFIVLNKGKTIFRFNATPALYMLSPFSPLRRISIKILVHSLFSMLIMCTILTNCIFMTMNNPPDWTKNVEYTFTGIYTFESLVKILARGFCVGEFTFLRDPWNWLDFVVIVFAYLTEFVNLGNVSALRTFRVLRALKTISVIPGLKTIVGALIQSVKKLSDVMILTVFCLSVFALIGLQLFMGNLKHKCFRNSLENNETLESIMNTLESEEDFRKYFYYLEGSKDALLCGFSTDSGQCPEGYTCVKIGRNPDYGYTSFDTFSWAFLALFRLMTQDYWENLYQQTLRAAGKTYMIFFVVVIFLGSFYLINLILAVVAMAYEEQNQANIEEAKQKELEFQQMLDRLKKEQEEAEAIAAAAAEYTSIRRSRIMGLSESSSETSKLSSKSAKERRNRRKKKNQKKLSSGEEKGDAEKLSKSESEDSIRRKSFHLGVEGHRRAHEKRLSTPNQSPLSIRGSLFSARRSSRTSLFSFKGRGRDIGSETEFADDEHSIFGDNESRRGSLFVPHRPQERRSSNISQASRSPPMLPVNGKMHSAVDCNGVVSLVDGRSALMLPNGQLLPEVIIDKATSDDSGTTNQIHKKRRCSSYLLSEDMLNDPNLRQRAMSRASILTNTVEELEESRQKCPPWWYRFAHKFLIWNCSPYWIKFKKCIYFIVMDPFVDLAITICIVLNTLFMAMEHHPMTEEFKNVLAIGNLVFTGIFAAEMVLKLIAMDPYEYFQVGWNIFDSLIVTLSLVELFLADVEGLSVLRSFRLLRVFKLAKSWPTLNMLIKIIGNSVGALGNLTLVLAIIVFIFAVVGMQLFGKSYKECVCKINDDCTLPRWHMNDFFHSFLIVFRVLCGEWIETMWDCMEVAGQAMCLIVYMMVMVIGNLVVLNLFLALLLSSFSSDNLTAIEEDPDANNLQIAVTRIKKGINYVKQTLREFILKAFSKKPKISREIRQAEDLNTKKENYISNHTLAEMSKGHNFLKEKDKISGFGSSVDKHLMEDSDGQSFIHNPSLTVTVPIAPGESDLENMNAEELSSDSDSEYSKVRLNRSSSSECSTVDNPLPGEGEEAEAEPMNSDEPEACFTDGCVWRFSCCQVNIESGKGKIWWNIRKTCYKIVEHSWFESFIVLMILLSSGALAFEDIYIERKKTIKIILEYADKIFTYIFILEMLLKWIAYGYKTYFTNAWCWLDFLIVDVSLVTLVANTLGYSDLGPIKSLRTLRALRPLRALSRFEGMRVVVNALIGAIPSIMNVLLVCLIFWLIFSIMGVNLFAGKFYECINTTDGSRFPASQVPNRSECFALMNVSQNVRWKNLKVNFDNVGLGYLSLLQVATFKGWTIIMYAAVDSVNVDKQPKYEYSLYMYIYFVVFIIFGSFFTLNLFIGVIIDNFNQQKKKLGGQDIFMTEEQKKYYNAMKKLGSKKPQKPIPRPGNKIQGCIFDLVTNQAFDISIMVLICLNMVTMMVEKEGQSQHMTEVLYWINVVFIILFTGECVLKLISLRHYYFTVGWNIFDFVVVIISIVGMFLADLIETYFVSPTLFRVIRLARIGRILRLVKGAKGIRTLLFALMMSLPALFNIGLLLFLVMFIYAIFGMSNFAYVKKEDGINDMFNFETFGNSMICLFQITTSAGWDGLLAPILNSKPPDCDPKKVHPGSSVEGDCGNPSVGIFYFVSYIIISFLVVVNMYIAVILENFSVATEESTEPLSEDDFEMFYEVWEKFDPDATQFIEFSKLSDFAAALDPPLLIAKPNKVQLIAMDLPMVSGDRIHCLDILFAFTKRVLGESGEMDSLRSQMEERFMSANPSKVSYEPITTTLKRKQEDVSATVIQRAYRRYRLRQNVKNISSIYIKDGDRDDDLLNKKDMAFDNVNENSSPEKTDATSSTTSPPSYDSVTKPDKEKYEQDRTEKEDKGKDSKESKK", "details": "20 mg dose of cilnidipine; cited from earlier work"}, "[4]": {"details": "given orally; cited from earlier work"}, "[5]": {"details": "oral dosing; cited from earlier work"}, "[6]": {"details": "cilnidipine 10 mg and/or tadalafil 5 mg arms"}, "[7]": {"details": "cilnidipine 20 mg arms (alone or + tadalafil 5 mg)"}}, "note": "“Also recorded” adds a separate entry of the source. Marks after values point to notes of the source that are not given here.", "data": [{"molecule": "COCCOC(=O)C1=C(C)NC(C)=C(C(=O)OC/C=C/c2ccccc2)C1c1cccc([N+](=O)[O-])c1", "note": "(stereo not shown) [Cilnidipine, cilnidipine]", "values": [{"measurement": "Subgroup Baseline RCS <3.5, % change", "setting": "participants with SSc-RP [1]; Cilnidipine 20 mg (n = 1)", "result": "baseline −42%"}, {"measurement": "Subgroup Baseline RCS >3.5-7.5, % change", "setting": "participants with SSc-RP [1]; Cilnidipine 20 mg (n = 2)", "result": "baseline −43%"}, {"measurement": "Subgroup attack frequency, <10 baseline, % change", "setting": "participants with SSc-RP [1]; Cilnidipine 20 mg (n = 2)", "result": "baseline −29%"}, {"measurement": "Subgroup attack frequency, >10 baseline, % change", "setting": "participants with SSc-RP [1]; Cilnidipine 20 mg (n = 2)", "result": "baseline −50%"}, {"measurement": "Average Raynaud's Pain, % change", "setting": "participants with SSc-RP [1]; Cilnidipine 20 mg (n = 3)", "result": 12, "unit": "%"}, {"measurement": "Daily RCS Change", "setting": "participants with SSc-RP [1]; Cilnidipine 20 mg (n = 3)", "result": "−28", "unit": "%"}, {"measurement": "Duration, % change", "setting": "participants with SSc-RP [1]; Cilnidipine 20 mg (n = 3)", "result": "−20", "unit": "%"}, {"measurement": "Mean % reduction in RCS", "setting": "participants with SSc-RP [1]; Cilnidipine 20 mg (n = 3)", "result": 27.9, "unit": "%"}, {"measurement": "Mean % reduction in duration", "setting": "participants with SSc-RP [1]; Cilnidipine 20 mg (n = 3)", "result": 20.0, "unit": "%"}, {"measurement": "Mean % reduction in pain", "setting": "participants with SSc-RP [1]; Cilnidipine 20 mg (n = 3)", "result": "−11.8", "unit": "%"}, {"measurement": "Mean % reduction in severity", "setting": "participants with SSc-RP [1]; Cilnidipine 20 mg (n = 3)", "result": 35.5, "unit": "%"}, {"measurement": "Mean % reduction of weekly attacks", "setting": "participants with SSc-RP [1]; Cilnidipine 20 mg (n = 3)", "result": 43, "unit": "%"}, {"measurement": "Severity, % change", "setting": "participants with SSc-RP [1]; Cilnidipine 20 mg (n = 3)", "result": "−36", "unit": "%"}, {"measurement": "Weekly attack frequency, % change", "setting": "participants with SSc-RP [1]; Cilnidipine 20 mg (n = 3)", "result": "−43", "unit": "%"}, {"measurement": "Weekly attack frequency, % change, if baseline RCS <3.5", "setting": "participants with SSc-RP [1]; Cilnidipine 20 mg (n = 3)", "result": "−42", "unit": "%"}, {"measurement": "Subgroup Baseline RCS 3.5-7.5, % change", "setting": "participants with SSc-RP [1]; Pooled Cilnidipine (n = 1)", "result": "baseline −86%"}, {"measurement": "Subgroup attack frequency, <10 baseline, % change", "setting": "participants with SSc-RP [1]; Pooled Cilnidipine (n = 2)", "result": "baseline −55%"}, {"measurement": "Subgroup attack frequency, >10 baseline, % change", "setting": "participants with SSc-RP [1]; Pooled Cilnidipine (n = 2)", "result": "baseline −28%"}, {"measurement": "Daily RCS Change", "setting": "participants with SSc-RP [1]; Pooled Cilnidipine (n = 3)", "result": "12% (n = 3)"}, {"measurement": "Subgroup Baseline RCS <3.5, % change", "setting": "participants with SSc-RP [1]; Pooled Cilnidipine (n = 3)", "result": "baseline −27%"}, {"measurement": "Average Raynaud's Pain, % change", "setting": "participants with SSc-RP [1]; Pooled Cilnidipine (n = 7)", "result": "−27", "unit": "%"}, {"measurement": "Duration, % change", "setting": "participants with SSc-RP [1]; Pooled Cilnidipine (n = 7)", "result": 20, "unit": "%"}, {"measurement": "Severity, % change", "setting": "participants with SSc-RP [1]; Pooled Cilnidipine (n = 7)", "result": "−16", "unit": "%"}, {"measurement": "Weekly attack frequency, % change", "setting": "participants with SSc-RP [1]; Pooled Cilnidipine (n = 7)", "result": "−41", "unit": "%"}, {"measurement": "Weekly attack frequency, % change, if baseline RCS <3.5", "setting": "participants with SSc-RP [1]; Pooled Cilnidipine (n = 7)", "result": "−27", "unit": "%"}, {"measurement": "DSMB finding on Raynaud's endpoints", "setting": "participants with SSc-RP [1]; both doses (10 and 20 mg)", "result": "effective at reducing Raynaud's endpoints"}, {"measurement": "Average Pain Score Change From Baseline [Mean (SD)]", "setting": "participants with SSc-RP [1]; [6]", "result": "0.47 (0.558)"}, {"measurement": "Average Pain Score Percent Change from Baseline [Mean (SD)]", "setting": "participants with SSc-RP [1]; [6]", "result": "11.76 (27.478)† %"}, {"measurement": "Average Pain Score [Mean (SD)] after treatment (Raynaud's pain)", "setting": "participants with SSc-RP [1]; [6]", "result": "2.82 (2.268)"}, {"measurement": "Average Pain Score Change From Baseline [Mean (SD)]", "setting": "participants with SSc-RP [1]; [7]", "result": "−0.47 (2.025)"}, {"measurement": "Average Pain Score Percent Change from Baseline [Mean (SD)]", "setting": "participants with SSc-RP [1]; [7]", "result": "−26.89 (89.725)* %"}, {"measurement": "Average Pain Score [Mean (SD)] after treatment (Raynaud's pain)", "setting": "participants with SSc-RP [1]; [7]", "result": "1.28 (1.993)"}, {"measurement": "tolerability", "setting": "participants with SSc-RP [2]; 10 mg and 20 mg, alone or in combination with tadalafil", "result": "well tolerated; also recorded: good tolerability"}, {"measurement": "Safety: withdrawals", "setting": "participants with SSc-RP [2]; Cilnidipine 20 mg column (n = 8)", "result": 1, "unit": "withdrawal"}, {"measurement": "Safety: number of AE", "setting": "participants with SSc-RP [2]; Cilnidipine 20 mg, HA-mild (n = 8)", "result": "1AE (HA-mild;"}, {"measurement": "Safety: number of AE", "setting": "participants with SSc-RP [2]; Pooled Cilnidipine, in combo with T (n = 9)", "result": "1AE (in combo"}, {"measurement": "overall adverse event rate", "setting": "participants with SSc-RP [2]", "result": 17, "unit": "%"}, {"measurement": "overall adverse event rate", "setting": "participants with SSc-RP [2]; listed as Profervia", "result": 17, "unit": "% adverse"}, {"measurement": "treatment discontinuations due to intolerance", "setting": "participants with SSc-RP [2]; any dose of cilnidipine (n=17)", "result": "no treatment discontinuations due to intolerance"}, {"measurement": "severity grade of adverse events", "setting": "participants with SSc-RP [2]; patients treated with cilnidipine", "result": "only Grade 1 Adverse Events (AEs) were reported; also recorded: only mild (Grade 1) adverse events occurred"}, {"measurement": "AUCinf", "setting": "[3]; mean (±SD)", "result": "41.2 (±20.4) ng*h/mL"}, {"measurement": "AUClast", "setting": "[3]; mean (±SD)", "result": "37.0 (±17.9) ng*hr/mL"}, {"measurement": "CL/F", "setting": "[3]; mean (±SD)", "result": "304.7(±147.5) L/hr"}, {"measurement": "Cmax", "setting": "[3]; mean (±SD)", "result": "8.9 (±4.2) ng/mL"}, {"measurement": "T1/2", "setting": "[3]; mean (±SD)", "result": "7.5(±1.0) hr"}, {"measurement": "Tmax", "setting": "[3]; median (minimum-maximum)", "result": "2 (0.5-5) hr"}, {"measurement": "inhibition of Nav 1.7 compared to an 1800 mg dose of gabapentin", "setting": "Nav 1.7 sodium channel", "result": "> 6", "unit": "fold"}, {"measurement": "protein binding in plasma", "setting": "[4]", "result": 98, "unit": "%"}, {"measurement": "time to achieve maximal plasma concentration (Tmax)", "setting": "[5]", "result": "≤ 2", "unit": "h"}]}, {"molecule": "CN1CC(=O)N2[C@H](c3ccc4c(c3)OCO4)c3[nH]c4ccccc4c3C[C@@H]2C1=O", "note": "[Tadalafil, tadalafil]", "values": [{"measurement": "Average Pain Score Change From Baseline [Mean (SD)]", "setting": "participants with SSc-RP [1]; [6]", "result": "0.37 (2.219)"}, {"measurement": "Average Pain Score Percent Change from Baseline [Mean (SD)]", "setting": "participants with SSc-RP [1]; [6]", "result": "17.20 (64.838) %"}, {"measurement": "Average Pain Score [Mean (SD)] after treatment (Raynaud's pain)", "setting": "participants with SSc-RP [1]; [6]", "result": "5.84 (4.768)"}]}]}
